The target in one assay is T1, M1 muscarinic receptor (Homo sapiens, UniProt P11229).
T1 construct: expressed in transfected cells; host or cells: CHO cells (M1-CHO, under zeocin and G418 selection)
T1 sequence (P11229 1-460): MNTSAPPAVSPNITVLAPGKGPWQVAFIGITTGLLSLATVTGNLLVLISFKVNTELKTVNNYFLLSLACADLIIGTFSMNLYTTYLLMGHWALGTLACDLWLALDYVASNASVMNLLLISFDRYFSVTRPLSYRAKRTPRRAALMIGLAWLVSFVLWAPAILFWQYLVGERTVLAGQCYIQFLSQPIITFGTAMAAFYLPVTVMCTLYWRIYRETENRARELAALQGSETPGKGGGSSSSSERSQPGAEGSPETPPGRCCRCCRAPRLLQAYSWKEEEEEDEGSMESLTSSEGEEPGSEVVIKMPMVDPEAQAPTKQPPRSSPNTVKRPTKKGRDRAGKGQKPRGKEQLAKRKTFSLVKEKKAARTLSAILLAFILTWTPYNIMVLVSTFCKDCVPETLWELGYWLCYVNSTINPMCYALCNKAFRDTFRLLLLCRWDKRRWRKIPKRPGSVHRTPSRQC
The assay is described as follows: Functional mobilization of intracellular calcium (FLIPR, Fluo-3), M1-CHO cells. In kind it is cell-based. Particulars: for Emax: 100% efficacy is the maximum response obtained with the Carbachol control, read-out: M1 Efficacy. A digest of the protocol: (§1)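 Intracellular calcium was tracked by fluorescence (488/540 nm) over 60 sec after compound addition to dye-loaded CHO cells expressing the receptor. Inhibitory activity used a 15 min pre-incubation before carbachol at the subtype EC80.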
For orientation: Calcium flux is commonly read through the fluorescence of an indicator in the cells.

In another assay the target is T2, M4 muscarinic receptor (Homo sapiens, UniProt P08173).
T2 construct: expressed in transfected cells; host or cells: CHO cells (M4-CHO, under puromycin, zeocin and blasticidin selection)
T2 sequence (P08173 1-479): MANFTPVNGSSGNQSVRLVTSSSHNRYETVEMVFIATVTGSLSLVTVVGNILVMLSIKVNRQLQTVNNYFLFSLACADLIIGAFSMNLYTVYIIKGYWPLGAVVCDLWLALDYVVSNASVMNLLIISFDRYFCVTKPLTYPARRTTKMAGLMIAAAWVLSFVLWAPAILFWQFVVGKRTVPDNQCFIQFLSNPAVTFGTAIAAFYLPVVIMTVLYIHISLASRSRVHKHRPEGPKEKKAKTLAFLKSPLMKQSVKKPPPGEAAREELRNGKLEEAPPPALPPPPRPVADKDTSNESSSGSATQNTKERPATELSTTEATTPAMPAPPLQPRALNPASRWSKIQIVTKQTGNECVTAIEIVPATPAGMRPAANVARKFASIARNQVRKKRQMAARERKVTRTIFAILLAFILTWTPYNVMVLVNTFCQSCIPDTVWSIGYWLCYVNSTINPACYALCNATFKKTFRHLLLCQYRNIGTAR
Briefly: Functional mobilization of intracellular calcium (FLIPR, Fluo-3), M4-CHO cells. In kind it is cell-based. Particulars: for Emax: 100% efficacy is the maximum response obtained with the Carbachol control, read-out: M4 Efficacy. A digest of the protocol:
as §1

The mark [1] stands for this setting: compound nos. 1-454, M1-CHO cells, calcium mobilization.
Where [2] appears, read: compound nos. 1-454, M4-CHO cells, calcium mobilization.

Results on 20 compounds are retold here after patent US7858635B2 (priority 2005, dated 2010).

SMILES strings stand for the structures. Read-outs that look alike come from different tables or passages of the source.

Turning to `COC(=O)N1CC2(CCN(C3CC4CCC(C3)N4C(=O)O[C@H]3CCOC3)CC2)c2cc(F)ccc21` (some centres unmarked) [compound 96], the Emax on M1 muscarinic receptor (compound nos. 1-454) is 65 to 85%; on M4 muscarinic receptor (compound nos. 1-454) it was under 55%. For the same compound, at M1 muscarinic receptor (setting [1]), the “M1 Activity” value was “++ (activity was measured to be between 0.7 μM and 3.0 μM)”. The “M4 Activity” value on M4 muscarinic receptor (setting [2]) is “+ (activity was measured to be greater than or equal to 4.0 μM)”.
As to `CC(=O)N1CC2(CCN(CC3CCCC3)CC2)c2cc(F)ccc21` [compound 187], the Emax at M1 muscarinic receptor (compound nos. 1-454) was in the range of 65 to 85%; on M4 muscarinic receptor (compound nos. 1-454), 55 to 70%. For the same compound, on M1 muscarinic receptor (setting [1]), the “M1 Activity” value was “++ (activity was measured to be between 0.7 μM and 3.0 μM)”. For the same compound, the “M4 Activity” value at M4 muscarinic receptor (setting [2]) is reported as “+ (activity was measured to be greater than or equal to 4.0 μM)”.
For the compound `CC(C)COC(=O)N1C2CCC1CC(N1CCC3(CC1)COc1ccc(F)cc13)C2` (centres unmarked) [compound 160], the Emax is over 85% on M1 muscarinic receptor (compound nos. 1-454) and over 70% on M4 muscarinic receptor (compound nos. 1-454). The “M1 Activity” value on M1 muscarinic receptor (setting [1]) is recorded as “+++ (activity was measured to be less than or equal to 0.7 μM)”. The “M4 Activity” value at M4 muscarinic receptor (setting [2]) was “++ (activity was measured to be between 0.1 μM and 4.0 μM)”.
Turning to `CC(=O)N1CC2(CCN(C3CCCCCC3)CC2)c2cc(F)ccc21` [compound 210], the Emax is 65 to 85% on M1 muscarinic receptor (compound nos. 1-454) and under 55% on M4 muscarinic receptor (compound nos. 1-454). Moreover, the “M1 Activity” value at M1 muscarinic receptor (setting [1]) is “++ (activity was measured to be between 0.7 μM and 3.0 μM)”. Also, the “M4 Activity” value at M4 muscarinic receptor (setting [2]) was “+ (activity was measured to be greater than or equal to 4.0 μM)”.
For `C1=C[C@H]2C[C@H]1C[C@@H]2CN1CCC2(CCc3ccccc32)CC1` [compound 263], the results for the Emax at M1 muscarinic receptor (compound nos. 1-454) and at M4 muscarinic receptor (compound nos. 1-454) were under 65% and under 55%, respectively. The “M1 Activity” value on M1 muscarinic receptor (setting [1]) is listed as “+++ (activity was measured to be less than or equal to 0.7 μM)”. For the same compound, the “M4 Activity” value on M4 muscarinic receptor (setting [2]) is on record as “+++ (activity was measured to be less than or equal to 0.1 μM)”.
In the same order, the values of `CCC1CCC(N2CCC3(CC2)CN(C(C)=O)c2ccc(F)cc23)CC1` (centres unmarked) [compound 27] are 65 to 85%, 55 to 70%, “+++ (activity was measured to be less than or equal to 0.7 μM)” and “+++ (activity was measured to be less than or equal to 0.1 μM)”.
Regarding `COCCOC(=O)N1CCC(N2CCC3(CC2)CN(C(=O)N(C)C)c2ccc(F)cc23)CC1` [compound 265], the Emax is under 65% at M1 muscarinic receptor (compound nos. 1-454) and under 55% at M4 muscarinic receptor (compound nos. 1-454). For the same compound, the “M1 Activity” value at M1 muscarinic receptor (setting [1]) was “++ (activity was measured to be between 0.7 μM and 3.0 μM)”. Further, at M4 muscarinic receptor (setting [2]), the “M4 Activity” value was “++ (activity was measured to be between 0.1 μM and 4.0 μM)”.
As to `CN(C)C(=O)N1CC2(CCN(C3CCN(C(=O)OCCF)CC3)CC2)c2cc(F)ccc21` [compound 48], the values for the Emax on M1 muscarinic receptor (compound nos. 1-454) and on M4 muscarinic receptor (compound nos. 1-454) were over 85% and 55 to 70%, respectively. In addition, the “M1 Activity” value on M1 muscarinic receptor (setting [1]) was “+++ (activity was measured to be less than or equal to 0.7 μM)”. Besides, the “M4 Activity” value at M4 muscarinic receptor (setting [2]) is “++ (activity was measured to be between 0.1 μM and 4.0 μM)”.
As to `CC(=O)N(C)[C@H]1CC2(CCN(C3CCN(c4nc(C)ns4)CC3)CC2)c2ccccc21` [compound 479], the Emax was over 100% at M1 muscarinic receptor (compound nos. 455-509) and 25 to 100% at M4 muscarinic receptor (compound nos. 455-509). In addition, the “M1 Activity” value at M1 muscarinic receptor (compounds 455-509) was “+++ (activity was measured to be less than or equal to 2.0 μM)”. Besides, the “M4 Activity” value on M4 muscarinic receptor (compounds 455-509) is “++ (activity was measured to be between 2.0 μM and 5.0 μM)”.
With `COCCOC(=O)N1CCC(CN2CCC3(CC2)CN(C(C)=O)c2ccc(C)cc23)CC1` [compound 419], at M1 muscarinic receptor (compound nos. 1-454), the “M1 Activity” value is “+ (activity was measured to be greater than or equal to 3.0 μM)” and the Emax is under 65%. Besides, at M4 muscarinic receptor (compound nos. 1-454), the “M4 Activity” value is listed as “+ (activity was measured to be greater than or equal to 4.0 μM)” and the Emax is under 55%.
In the case of `CCCC1CCC(N2CCC3(CC2)CNc2ccc(Cl)cc23)CC1` (centres unmarked) [compound 341], the Emax was under 65% on M1 muscarinic receptor (compound nos. 1-454) and under 55% on M4 muscarinic receptor (compound nos. 1-454). Moreover, the “M1 Activity” value at M1 muscarinic receptor (setting [1]) is reported as “+ (activity was measured to be greater than or equal to 3.0 μM)”. Further, at M4 muscarinic receptor (setting [2]), the “M4 Activity” value is reported as “+ (activity was measured to be greater than or equal to 4.0 μM)”.
Consider `CC(=O)NC1CC2(CCN(C3CC4CCC3C4)CC2)c2ccccc21` (centres unmarked) [compound 291], for which the Emax fell in the range of 65 to 85% at M1 muscarinic receptor (compound nos. 1-454) and 55 to 70% on M4 muscarinic receptor (compound nos. 1-454). On M1 muscarinic receptor (setting [1]), the “M1 Activity” value was “++ (activity was measured to be between 0.7 μM and 3.0 μM)”. Further, at M4 muscarinic receptor (setting [2]), the “M4 Activity” value is given as “+ (activity was measured to be greater than or equal to 4.0 μM)”.
As for `Cc1nsc(N2CC3(CCN(C4CC5CCC(C4)N5c4nc(C)ns4)CC3)c3ccccc32)n1` (centres unmarked) [compound 477], the Emax is over 100% at M1 muscarinic receptor (compound nos. 455-509) and 25 to 100% on M4 muscarinic receptor (compound nos. 455-509). Also, the “M1 Activity” value on M1 muscarinic receptor (compounds 455-509) was “+++ (activity was measured to be less than or equal to 2.0 μM)”. Moreover, the “M4 Activity” value at M4 muscarinic receptor (compounds 455-509) was “++ (activity was measured to be between 2.0 μM and 5.0 μM)”.
Consider `CN(C)C(=O)N1CC2(CCN(C3CCN(c4nncs4)CC3)CC2)c2ccccc21` [compound 495], for which the Emax on M1 muscarinic receptor (compound nos. 455-509) and on M4 muscarinic receptor (compound nos. 455-509) was 25 to 100% each time. Besides, the “M1 Activity” value at M1 muscarinic receptor (compounds 455-509) was “+ (activity was measured to be greater than or equal to 5.0 μM)”. Also, the “M4 Activity” value on M4 muscarinic receptor (compounds 455-509) was “+ (activity was measured to be greater than or equal to 5.0 μM)”.
On to `O=C(OC1CCC1)N1CC2(CCN(C3CC4CCC(C3)N4C(=O)O[C@H]3CCOC3)CC2)c2cc(F)ccc21` (some centres unmarked) [compound 125], for which the Emax is 65 to 85% at M1 muscarinic receptor (compound nos. 1-454) and under 55% at M4 muscarinic receptor (compound nos. 1-454). Besides, the “M1 Activity” value at M1 muscarinic receptor (setting [1]) is listed as “+++ (activity was measured to be less than or equal to 0.7 μM)”. Also, on M4 muscarinic receptor (setting [2]), the “M4 Activity” value is “++ (activity was measured to be between 0.1 μM and 4.0 μM)”.
`CCc1nsc(N2CCC(N3CCC4(CC3)CN(C(C)=O)c3ccccc34)CC2)n1` [compound 498]: the Emax at M1 muscarinic receptor (compound nos. 455-509) was over 100%; on M4 muscarinic receptor (compound nos. 455-509) it was 25 to 100%. For the same compound, the “M1 Activity” value at M1 muscarinic receptor (compounds 455-509) is given as “+++ (activity was measured to be less than or equal to 2.0 μM)”. Besides, the “M4 Activity” value on M4 muscarinic receptor (compounds 455-509) was “++ (activity was measured to be between 2.0 μM and 5.0 μM)”.
As for `Cc1nsc(N2C3CCC2CC(N2CCC4(CCN(C(=O)N(C)C)c5ccccc54)CC2)C3)n1` (centres unmarked) [compound 501], the Emax on M1 muscarinic receptor (compound nos. 455-509) is over 100%; on M4 muscarinic receptor (compound nos. 455-509), 25 to 100%. Besides, the “M1 Activity” value at M1 muscarinic receptor (compounds 455-509) is “+++ (activity was measured to be less than or equal to 2.0 μM)”. The “M4 Activity” value on M4 muscarinic receptor (compounds 455-509) is “++ (activity was measured to be between 2.0 μM and 5.0 μM)”.
With `CCOC(=O)N1C2CCC1CC(N1CCC3(CC1)CN(C(=O)c1cc(C)nn1C(C)(C)C)c1ccc(F)cc13)C2` (centres unmarked) [compound 189], the values for the Emax on M1 muscarinic receptor (compound nos. 1-454) and at M4 muscarinic receptor (compound nos. 1-454) were 65 to 85% and 55 to 70%, respectively. Also, at M1 muscarinic receptor (setting [1]), the “M1 Activity” value is “+++ (activity was measured to be less than or equal to 0.7 μM)”. The “M4 Activity” value on M4 muscarinic receptor (setting [2]) is listed as “+ (activity was measured to be greater than or equal to 4.0 μM)”.
On to `c1ccc2c(c1)NCC21CCN(CC2CCCCC2)CC1` [compound 342], for which the Emax was 65 to 85% at M1 muscarinic receptor (compound nos. 1-454) and 55 to 70% at M4 muscarinic receptor (compound nos. 1-454). Moreover, the “M1 Activity” value at M1 muscarinic receptor (setting [1]) was “+++ (activity was measured to be less than or equal to 0.7 μM)”. Besides, the “M4 Activity” value at M4 muscarinic receptor (setting [2]) was “++ (activity was measured to be between 0.1 μM and 4.0 μM)”.
For `CC(=O)N1CC2(CCN(C3CC4CCC(C3)N4C(=O)OC3CCC3)CC2)c2cc(F)ccc21` (centres unmarked) [compound 174], the Emax on M1 muscarinic receptor (compound nos. 1-454) was over 85%; at M4 muscarinic receptor (compound nos. 1-454), 55 to 70%. The “M1 Activity” value on M1 muscarinic receptor (setting [1]) is reported as “+++ (activity was measured to be less than or equal to 0.7 μM)”. Also, on M4 muscarinic receptor (setting [2]), the “M4 Activity” value is given as “+ (activity was measured to be greater than or equal to 4.0 μM)”.
